Values quoted from earlier work, collected in US20040120994A1, “Transdermal therapeutic system containing testorone and method for its production thereof” (priority 2001, published 2004).

Assays:
transport proteins = conditions: in the blood

C[C@]12CC[C@H]3[C@@H](CCC4=CC(=O)CC[C@@]43C)[C@@H]1CC[C@@H]2O [testosterone]
plasma half-life: around 80 min. | testosterone bound to transport proteins (transport proteins): 98%
